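All cell lines were grown in 96-well plates and treated with compound for 48 hours. TGI: total growth inhibition.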
Columns and labels:
Test in all cases: NCI anticancer screen, dose series, 48 h
[1] = test system: SNB-19 CNS
[2] = test system: HCC-2998 colon
[3] = test system: KM12 colon
[4] = test system: SW-620 colon
[5] = test system: CCRF-CEM leukemia
[6] = test system: PC-3 prostate
[7] = test system: OVCAR-5 ovarian
[8] = test system: HS 578T breast
[9] = test system: HOP-92 NSCLC
[10] = test system: M14 melanoma
[11] = test system: HCT-15 colon
[12] = test system: MALME-3M melanoma
[13] = test system: SK-MEL-28 melanoma
[14] = test system: RXF 393 renal
[15] = test system: SR leukemia
[16] = test system: EKVX NSCLC
[17] = test system: SF-539 CNS
[18] = test system: MOLT-4 leukemia
[19] = test system: HT29 colon
[20] = test system: HCT-116 colon
[21] = test system: ACHN renal
[22] = test system: TK-10 renal
[23] = test system: SK-MEL-2 melanoma
[24] = test system: MDA-MB-435
[25] = test system: NCI-H460 lung
[26] = test system: NCI/ADR-RES ovarian
[27] = test system: 786-0 renal
[28] = test system: T-47D breast
[29] = test system: CAKI-1 renal
[30] = test system: COLO 205 colon
[31] = test system: HOP-62 NSCLC
[32] = test system: OVCAR-8 ovarian
[33] = test system: MCF7 breast
[34] = test system: SK-OV-3 ovarian
[35] = test system: A498 renal
[36] = test system: MDA-N
[37] = test system: SF-295 CNS
[38] = test system: DU-145 prostate
[39] = test system: SK-MEL-5 melanoma
[40] = test system: A549 NSCLC
[41] = test system: SN12C renal
[42] = test system: SF-268 CNS
[43] = test system: MDA-MB-231 breast
[44] = test system: UACC-62 melanoma
[45] = test system: LOX IMVI melanoma
[46] = test system: OVCAR-4 ovarian
[47] = test system: NCI-H226 lung
[48] = test system: HL-60(TB) leukemia
[49] = test system: OVCAR-3 ovarian
[50] = test system: NCI-H23 lung
[51] = test system: UACC-257 melanoma

Question: How did the TGI [1] turn out when `O=C1SCC(O)=C1/C=N/Nc1nc2ccccc2o1` was run?
Answer: > 100 µM

Question: And the TGI [2]?
Answer: > 100 µM

Question: What about the TGI [3] of the same compound?
Answer: > 100 µM

Question: And the TGI [4]?
Answer: > 100 µM

Question: And the TGI [5]?
Answer: 48.8 µM

Question: And the TGI [6]?
Answer: 88.6 µM

Question: What about the TGI [7] of the same compound?
Answer: > 100 µM

Question: And the TGI [8]?
Answer: > 100 µM

Question: And the TGI [9]?
Answer: 81.7 µM

Question: And the TGI [10]?
Answer: 57.5 µM

Question: And the TGI [11]?
Answer: > 100 µM

Question: What about the TGI [12] of the same compound?
Answer: > 100 µM

Question: What about the TGI [13] of the same compound?
Answer: > 100 µM

Question: And the TGI [14]?
Answer: 70.7 µM

Question: What about the TGI [15] of the same compound?
Answer: > 100 µM

Question: And the TGI [16]?
Answer: 96.1 µM

Question: What about the TGI [17] of the same compound?
Answer: 40.8 µM

Question: And the TGI [18]?
Answer: > 100 µM

Question: What about the TGI [19] of the same compound?
Answer: 83.7 µM

Question: What about the TGI [20] of the same compound?
Answer: 50 µM

Question: And the TGI [21]?
Answer: > 100 µM

Question: What about the TGI [22] of the same compound?
Answer: 92.8 µM

Question: What about the TGI [23] of the same compound?
Answer: > 100 µM

Question: What about the TGI [24] of the same compound?
Answer: > 100 µM

Question: What about the TGI [25] of the same compound?
Answer: > 100 µM

Question: What about the TGI [26] of the same compound?
Answer: 43.3 µM

Question: And the TGI [27]?
Answer: > 100 µM

Question: And the TGI [28]?
Answer: 54.7 µM

Question: What about the TGI [29] of the same compound?
Answer: > 100 µM

Question: What about the TGI [30] of the same compound?
Answer: 81 µM

Question: What about the TGI [31] of the same compound?
Answer: > 100 µM

Question: And the TGI [32]?
Answer: 46.6 µM

Question: And the TGI [33]?
Answer: > 100 µM

Question: And the TGI [34]?
Answer: 82.8 µM

Question: And the TGI [35]?
Answer: > 100 µM

Question: And the TGI [36]?
Answer: > 100 µM

Question: And the TGI [37]?
Answer: 72.4 µM

Question: What about the TGI [38] of the same compound?
Answer: > 100 µM

Question: And the TGI [39]?
Answer: 63.9 µM

Question: What about the TGI [40] of the same compound?
Answer: 95.4 µM

Question: And the TGI [41]?
Answer: 96 µM

Question: And the TGI [42]?
Answer: > 100 µM

Question: And the TGI [43]?
Answer: > 100 µM

Question: And the TGI [44]?
Answer: 46.1 µM

Question: And the TGI [45]?
Answer: > 100 µM

Question: What about the TGI [46] of the same compound?
Answer: > 100 µM

Question: And the TGI [47]?
Answer: 76.6 µM

Question: And the TGI [48]?
Answer: 24.7 µM

Question: And the TGI [49]?
Answer: 65.5 µM

Question: What about the TGI [50] of the same compound?
Answer: 86.3 µM

Question: What about the TGI [51] of the same compound?
Answer: 72.5 µM

From PubChem BioAssay (NCI)
